Test results: US20090246773A1, “DIAGNOSTIC COMPOSITIONS AND TREATMENT METHODS FOR CONDITIONS INVOLVING TROPHOBLAST CELL DEATH, DIFFERENTIATION, INVASION AND/OR CELL FUSION AND TURNOVER” (Mount Sinai Hospital, priority 2006, published 2009)
Residues, ends and D or L forms follow the SMILES beside them. *: point of attachment. Cbz = O=C(OCc1ccccc1)*; CH2F = FC*

Key:
[1] = test system: sFlt-1 expression in first trimester placental explants; test: sFlt-1 mRNA by qRT-PCR in first trimester villous explants (HIF-1 stabilization / knockdown); format: cell-based, human; details: 1.0 mM DMOG, explants at 20% O2; relative level normalized to 18S; 20% O2 alone 1.0±0.03; P<0.05
Method: (§1) Chorionic villous explant culture was performed as previously described (Caniggia, 2000). Briefly, placental tissues (5-8 weeks of gestation, 15 separate sets) were placed in ice-cold PBS and processed within 2 hours of collection. Tissues were aseptically dissected to remove decidual tissue and fetal membranes. Small fragments of placental villi (25-45 mg wet weight) were teased apart, placed on Millicell-CM culture dish inserts (Millipore Corp., Bedford, Mass., USA) pre-coated with 0.15 mL of undiluted Matrigel (Collaborative Biomedical Products, Bedford, Mass., USA), and transferred to a 24-well culture dish. Explants were cultured in serum-free DMEM/F12 (Gibco BRL, Grand Island, N.Y., USA) supplemented with 100 μg/mL streptomycin, 100 U/mL penicillin, and incubated overnight at 37° C. in 5% CO2 in air to allow attachment. Explants were maintained in standard condition (5% CO2 in 95% air) or in an atmosphere of 3% or 8% O2 (92% or 87% N2 and 5% CO2, respectively) for 72 hrs at 37° C. The morphological integrity and viability of villous explants and their EVT outgrowth and migration were monitored daily for up to 5 days as previously reported (Caniggia, 2000). […]
Total RNA was isolated from placental samples using a Trizol-based approach according to the manufacturer's protocol (Invitrogen, CA). […] Relative quantitation of data was performed using logarithmic curves. […]

[2] = test system: sFlt-1 expression in first trimester placental explants; test: sFlt-1 protein immunohistochemistry in villous explants; format: cell-based, human; details: DMOG added to 20% O2 explants vs. 20% O2 without DMOG; IHC
Method: as §1, with “Explants were maintained in standard condition (5% CO2 in 95% air) or in an atmosphere of 3% or 8% O2 (92% or 87% N2 and 5% CO2, respectively) for 72 hrs at 37° C.” left out
Paraffin sections were mounted on glass slides, dewaxed in xylene and rehydrated in descending ethanol gradient. […] Finally, avidin biotin complex (Vector Laboratories, Burlingame, Calif.) was applied for 1 hour and staining was detected with the diamino-benzidine chromogen after 5 minutes. […]

villous explants [3] = test: EVT outgrowth of villous explants; format: cell-based, human; details: DMOG-treated explants vs. control explants at 20% O2
Method: Chorionic villous explant culture was performed as previously described (Caniggia, 2000). Briefly, placental tissues (5-8 weeks of gestation, 15 separate sets) were placed in ice-cold PBS and processed within 2 hours of collection. Tissues were aseptically dissected to remove decidual tissue and fetal membranes. Small fragments of placental villi (25-45 mg wet weight) were teased apart, placed on Millicell-CM culture dish inserts (Millipore Corp., Bedford, Mass., USA) pre-coated with 0.15 mL of undiluted Matrigel (Collaborative Biomedical Products, Bedford, Mass., USA), and transferred to a 24-well culture dish. Explants were cultured in serum-free DMEM/F12 (Gibco BRL, Grand Island, N.Y., USA) supplemented with 100 μg/mL streptomycin, 100 U/mL penicillin, and incubated overnight at 37° C. in 5% CO2 in air to allow attachment. Explants were maintained in standard condition (5% CO2 in 95% air) or in an atmosphere of 3% or 8% O2 (92% or 87% N2 and 5% CO2, respectively) for 72 hrs at 37° C. The morphological integrity and viability of villous explants and their EVT outgrowth and migration were monitored daily for up to 5 days as previously reported (Caniggia, 2000). Explants from more than 10 different placentae in more than 15 separate experiments were used. […]

villous explants [4] = test: TUNEL assay of villous explants; format: cell-based, human; details: DMOG treatment or 3% O2 exposure of explants
Method: An in situ cell death detection kit was purchased from Amersham Biosciences, NJ, USA. Terminal deoxynucleotidyl transferase-dUTP-nick end labelling (TUNEL) assays were performed according to instructions provided by the manufacturer. Paraffin sections of tissue were dewaxed in xylene, rehydrated in descending grades of ethanol, and finally soaked in PBS. Tissue sections were pre-treated with Proteinase K (10 μg/mL) in PBS for 10 min, washed and then incubated in 3% hydrogen peroxide in methanol for 45 minutes. After washing in PBS, the slides were preincubated with 1× One Phor All buffer in 0.1% Triton X-100 in water for 30 minutes and then incubated in TdT solution for 1.5 hour at 37° C. Samples were washed in PBS and avidin biotin complex (Vector Laboratories, Burlingame, Calif.) was applied for 1 hour. Staining was detected with the diamino-benzidine chromogen after 10 minutes. Slides were counterstained with haematoxylin, dehydrated in ascending concentrations of ethanol, and fixed with xylene.

[5] = test system: Mcl-1 Cleavage in Human Villous Explants; test: Mcl-1 immunoblot of villous explants exposed to hypoxia-reoxygenation with caspase inhibitors; format: cell-based; details: for Mcl-1S amount: 100 μM inhibitor, relative to H/R and untreated tissues; for Mcl-1L cleavage induced by hypoxia-reoxygenation: human villous explants, summary statement
Method: Explant cultures were performed as previously described (Caniggia, 2000). Briefly, placental tissues (5-8 weeks of gestation, 15 sets) were placed in ice-cold PBS and processed within 2 hours of collection. Tissues were aseptically dissected to remove decidual tissue and fetal membranes. Small fragments of placental villi (25-45 mg wet weight) were teased apart, placed on Millicell-CM culture dish inserts (Millipore Corp., Bedford, Mass., USA) pre-coated with 0.15 mL of undiluted Matrigel (Collaborative Biomedical Products, Bedford, Mass., USA), and transferred to a 24-well culture dish. Explants were cultured in serum-free DMEM/F12 (Gibco BRL, Grand Island, N.Y., USA) supplemented with 100 μg/mL streptomycin, 100 U/mL penicillin, and incubated overnight at 37° C. in 5% CO2 in air to allow attachment. Explants were maintained in standard condition (5% CO2 in 95% air) or in an atmosphere of 3% O2/92% N2/5% CO2 for 48 hrs at 37° C. Explants from more than 10 different placentae in more than 15 separate experiments were used. A minimum of 3 explants per experimental condition was used at all times. Explants were exposed to hypoxia-reoxygenation (H/R) as previously described (Hung, 2002; Soleymanlou, 2005) in presence of 100 μM of the pan-caspase inhibitor z-VAD-fmk (BioMol, Plymouth Meeting, Pa.) or caspase-3-specific inhibitor z-DEVD-fmk (R&D Systems, Minneapolis, Minn.) both dissolved in DMSO (equivalent volume of DMSO in absence of inhibitors was used in control conditions).
Western blotting was performed as previously described (MacPhee, 2001). Fifty μg of total protein form placental tissue or cell line was subjected to 12% (wt/vol) SDS-PAGE. Membranes were probed at 4° C. overnight with a 1:1000 dilutions of primary antibodies:rabbit polyclonal Mtd antibody capable of recognizing all isoforms as previously reported (Soleymanlou, 2005); Mcl-1-specific rabbit polyclonal antibody (SC-819 clone S-19 from Santa Cruz Biotechnology, Santa Cruz, Calif.); specific cleaved caspase-3 (Asp175) (5Al) and cleaved caspase-8 (Asp374) rabbit polyclonal antibodies (Cell Signaling, Beverly, Mass.). For anti-Mtd and Mcl-1 antibodies, pre-immune serum and competing peptides were used as controls. A rabbit polyclonal antibody was generated against N-terminal amino acids (28-41) of syncytin (NM_014590) and pre-immune serum was used as control. After overnight incubation, membranes were washed with TBS/T and incubated for 60 minutes at room temperature with 1:5000 diluted horseradish peroxidase-conjugated anti-rabbit (Santa Cruz Biotechnology). Blots were exposed to chemiluminescent ECL-plus reagent (Amersham, Piscataway, N.J.). All blots were confirmed for equal protein loading at all time using ponceau staining.

villous explants [6] = test: TGFβ treatment of first trimester villous explants: phospho-Smad2/3 and sFlt-1 (Western blot, real-time PCR); format: cell-based, human; details: 5 ng/mL, 24 hours
Method: (§2) Early onset (25-33 wks) severe IUGR with abnormal umbilical and uterine artery Doppler and from age-matched normal control tissues were collected. First trimester villous explants and BeWo and JEG-3 choriocarcinoma cell lines were cultured in standard conditions in the presence or absence of TGFβ1 or TGFβ 3 (5 ng/mL) for 24 hours. Message levels of sFlt-1 were measured by quantitative real-time PCR using specific TaqMan primers and probe. Protein expression of sFlt-1 was measured by Western blot using a polyclonal antibody against sFlt-1. In addition, protein lysates from placental tissues, explants and cells lines were analyzed with antibodies that recognize human Smad2, Smad3, Smad7 and phospho-Smad2/3.

BeWo cells = test: TGFβ treatment of BeWo cells: phospho-Smad2/3 and sFlt-1 (Western blot, real-time PCR); format: cell-based, human; details: 5 ng/mL, 24 hours
Method: as §2

villous explants [7] = test: TGFβ treatment of villous explants: endoglin expression; format: cell-based, human; details: villous explants (5-8 wks) vs. non-treated explants
Method: Human placental tissue from first trimester and from discordant dichorionic and monochorionic twins (n=10) and age matched normal twins (n=5) were used as physiological and pathological models of placental hypoxia. In all twins the discordancy was above 25% and absence of end diastolic velocity was documented in the growth-restricted twin. Endoglin mRNA expression was measured by quantitative PCR analysis. Protein expression was measured by Western Blot analysis using endoglin antibodies. Villous explants (5-8 wks) were used to test the effect of both oxygen and TGFβ1 and TGFβ3 on endoglin expression.

[8] = explants under H/R, 100 μM inhibitor in DMSO, immunoblot

## COC(=O)CNC(=O)C(=O)OC [DMOG, dimethyloxalyl-glycin]
[1]
  sFlt-1 mRNA expression: 2.4±0.2
[2]
  sFlt-1 protein expression in trophoblast layers including EVT: increased
Villous explants [3]
  explant outgrowth: typical low oxygen-induced outgrowth
Villous explants [4]
  apoptosis (TUNEL): not likely due to an increased incidence of apoptosis

## COC(=O)C[C@H](NC(=O)[C@H](C)NC(=O)[C@@H](NC(=O)OCc1ccccc1)C(C)C)C(=O)CF [z-VAD-fmk] (Cbz-Val-Ala-Asp(OMe)-CH2F)
[5]; [8]
  Mcl-1L content: restored
  p29 Mcl-1 (Mcl-1c) band / formation from Mcl-1L: abrogated
[5]; explants under H/R
  Mcl-1S amount: increased
[5]
  Mcl-1L cleavage induced by hypoxia-reoxygenation: prevented

## transforming growth factor β1 [TGFβ1]
Villous explants [6]
  phospho-Smad2 protein expression: increased
  phospho-Smad3 protein expression: increased
  sFlt-1 mRNA level: significant increase
  sFlt-1 protein level: significant increase
BeWo cells
  phospho-Smad2 protein expression: increased
  phospho-Smad3 protein expression: increased
  sFlt-1 mRNA level: significant increase
  sFlt-1 protein level: significant increase
Villous explants [7]
  expression of membrane endoglin: increased
  expression of soluble endoglin: increased

## COC(=O)CC[C@H](NC(=O)[C@H](CC(=O)OC)NC(=O)OCc1ccccc1)C(=O)N[C@H](C(=O)N[C@@H](CC(=O)OC)C(=O)CF)C(C)C [z-DEVD-fmk]
[5]; [8]
  p29 Mcl-1 (Mcl-1c) band / formation from Mcl-1L: prevented
[5]; explants under H/R
  Mcl-1S amount: increased
[5]
  Mcl-1L cleavage induced by hypoxia-reoxygenation: prevented

B1: transforming growth factor β3 (protein, UniProt P10600 301-412, looked up)
Transforming growth factor …: ALDTNYCFRNLEENCCVRPLYIDFRQDLGWKWVHEPKGYYANFCSGPCPYLRSADTTHSTVLGLYNTLNPEASASPCCVPQDLEPLTILYYVGRTPKVEQLSNMVVKSCKCS
notes: transforming growth factor β3 added to explant and cell cultures
Villous explants [6]
  phospho-Smad2 protein expression: increased
  phospho-Smad3 protein expression: increased
  sFlt-1 mRNA level: significant increase
  sFlt-1 protein level: significant increase
BeWo cells
  phospho-Smad2 protein expression: increased
  phospho-Smad3 protein expression: increased
  sFlt-1 mRNA level: significant increase
  sFlt-1 protein level: significant increase
Villous explants [7]
  expression of membrane endoglin: increased
  expression of soluble endoglin: increased
